According to patent US20060094721A9, “Sulfonamides as potassium channel blockers” (Icagen, Inc., priority 2002, published 2006):

Biological target: T1, intermediate conductance, calcium activated potassium channel (Gardos channel) in red blood cells (Homo sapiens, UniProt O15554)
T1 construct: endogenous in cells; host or cells: red blood cells from heparinized whole blood
Experiment: 86Rb flux assay for inhibition of the Gardos channel in red blood cells (Example 4)
Format: cell-based
Conditions: CaCl2 and A23187
Experimental: Activities for selected compounds of the invention were determined using the assay set forth in Example 4, and are presented in Table 1.
Example 4 illustrates the use of a rubidium flux assay to determine the activity of the compounds of the invention.
Example 4 describes a bioassay for measuring the inhibition of a calcium activated potassium channel, the Gardos channel, in red blood cells by the compounds of the invention.
Heparinized whole blood was washed three times with Modified Flux Buffer (MFB: 140 mM NaCl; 5 mM KCl; 10 mM Tris; 0.1 mM EGTA; pH=7.4). Red blood cells (“RBCs”) at an approximate 10% hematocrit. Washed cells were then incubated for 3 hours with ^86Rb (5 μCi/mL). After this incubation period, the RBCs were washed three times with cold MFB. Washed ^86Rb loaded RBCs were then incubated with a test compound of the invention for 10 minutes. ^86Rb flux was then initiated by the addition of 10 μL/mL of a MFB solution containing 10 mM CaCl2 and 100 μM A23187, a calcium ionophore. This yielded a final concentration of 100 μM CaCl2 and […] A23187 n the incubation medium. Cells were incubated for 10 minutes, spun down and the supernatant was removed. Samples were counted in a Wallace Microbeta liquid scintillation counter by Cerenkov emission. Total RBC ^86Rb content was determined by lysing the RBCs with water and then precipitating protein using a 50:50 mixture of ethanol:chloroform. After a 20 minute microfuge spin, the aqueous and organic layers separated and the aqueous layer was removed and counted. Efflux is expressed as a percentage of the initial cell content of ^86Rb.

Row | Compound | Activity (relative potencies in the intermediate conductance, calcium activated potassium channel blocker assay, IC50 class)
1 | COC(=O)c1ccccc1CS(=O)(=O)c1cccc(C(F)(F)F)c1 [Compound 95, 2-(3-Trifluoromethyl-benzenesulfonylmethyl)-benzoic Acid Methyl Ester] | ++ (++ represents 2 μM < IC50 < 0.5 μM)
2 | O=S(=O)(Nc1ccccc1-c1ncco1)c1cccc(C(F)(F)F)c1 [Compound 74, N-(2-Oxazol-2-yl-phenyl)-3-trifluoromethyl-benzenesulfonamide] | ++ (++ represents 2 μM < IC50 < 0.5 μM)
3 | COC(=O)c1ccccc1CSc1cccc(C(F)(F)F)c1 [Compound 96, 2-(3-Trifluoromethyl-phenylsulfanylmethyl)-benzoic Acid Methyl Ester] | + (+ Represents 10 μM < IC50 < 2 μM)
4 | Cc1noc(-c2ccccc2NS(=O)(=O)c2cccc(C(F)(F)F)c2)n1 [Compound 82, N-[2-(3-methyl-[1,2,4]oxadiazol-5-yl)-phenyl]-3-trifluoromethyl-benzenesulfonamide] | ++ (++ represents 2 μM < IC50 < 0.5 μM)
5 | COC(=O)C1=C(NS(=O)(=O)c2cccc(C(F)(F)F)c2)CCCC1 [Compound 31, 2-(3-trifluoromethyl-benzenesulfonylamino)-cyclohex-1-enecarboxylic Acid Methyl Ester] | ++ (++ represents 2 μM < IC50 < 0.5 μM)
6 | COc1noc(-c2ccccc2NS(=O)(=O)c2cccc(C(F)(F)F)c2)n1 [Compound 83, N-[2-(3-methoxy-[1,2,4]oxadiazol-5-yl)-phenyl]-3-trifluoromethyl-benzenesulfonamide] | ++ (++ represents 2 μM < IC50 < 0.5 μM)

Same assay, conditions: CaCl2 and A23187, read-out: Activity (relative potencies in the intermediate conductance, calcium activated potassium channel blocker assay, IC50 class)

Row | Compound | IC50 [nM]
7 | COc1ccc(NS(=O)(=O)c2cccc(C(F)(F)F)c2)c(-c2ncco2)c1 [Compound 40, N-(4-Methoxy-2-oxazol-2-yl-phenyl)-3-trifluoromethyl-benzenesulfonamide] | < 500
8 | O=S(=O)(Nc1ccccc1-c1ccco1)c1cccc(C(F)(F)F)c1 [Compound 76, N-(2-furan-2-yl-phenyl)-3-trifluoromethyl-benzenesulfonamide] | < 500
9 | COc1cc(NS(=O)(=O)c2cccc(C(F)(F)F)c2)c(-c2nc(C)no2)cc1OC [Compound 41, N-[4,5-dimethoxy-2-(3-methyl-[1,2,4]oxadiazol-5-yl)-phenyl]-3-trifluoromethyl-benzenesulfonamide] | < 500
